Source: paper PMC4227742 (Journal of the American Chemical Society, 2014)
Blank lines part the entries; values can stand above or below the compound they belong to.

Assays:
pCAF [1] = target: T1, pCAF (Homo sapiens, UniProt Q92831); assay: Labeling of pCAF in HEK-293 overexpression extracts; assay type: binding
Mof (MYST1) = target: T2, Mof (MYST1) (Homo sapiens, UniProt Q9H7Z6); assay: Photoaffinity/click fluorescent labeling of recombinant KAT, SDS-PAGE; assay type: binding; conditions: for Labeling of Mof in KAT cocktail: probe 1 μM, mixture of p300, pCAF
T2 sequence (Q9H7Z6 147-449): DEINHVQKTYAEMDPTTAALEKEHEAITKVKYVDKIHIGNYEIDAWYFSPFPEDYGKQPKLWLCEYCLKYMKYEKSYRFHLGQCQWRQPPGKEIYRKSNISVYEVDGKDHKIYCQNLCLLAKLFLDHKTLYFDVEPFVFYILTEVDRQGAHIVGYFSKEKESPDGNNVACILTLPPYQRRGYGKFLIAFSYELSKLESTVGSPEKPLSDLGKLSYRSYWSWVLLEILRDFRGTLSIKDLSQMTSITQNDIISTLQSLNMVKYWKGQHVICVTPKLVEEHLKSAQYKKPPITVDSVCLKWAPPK

pCAF [2] = target: T1, pCAF; assay: as above; assay type: binding; conditions: for Labeling of pCAF in KAT cocktail: probe 1 μM, mixture of p300, pCAF, Mof; for Fluorescent detection of pCAF at high probe concentration: 1 μM probe
p300 = target: T3, p300 (Homo sapiens, UniProt Q09472); assay: as above; assay type: binding; conditions: probe 1 μM; mixture of p300, pCAF, Mof
T3 sequence (Q09472 1284-1673): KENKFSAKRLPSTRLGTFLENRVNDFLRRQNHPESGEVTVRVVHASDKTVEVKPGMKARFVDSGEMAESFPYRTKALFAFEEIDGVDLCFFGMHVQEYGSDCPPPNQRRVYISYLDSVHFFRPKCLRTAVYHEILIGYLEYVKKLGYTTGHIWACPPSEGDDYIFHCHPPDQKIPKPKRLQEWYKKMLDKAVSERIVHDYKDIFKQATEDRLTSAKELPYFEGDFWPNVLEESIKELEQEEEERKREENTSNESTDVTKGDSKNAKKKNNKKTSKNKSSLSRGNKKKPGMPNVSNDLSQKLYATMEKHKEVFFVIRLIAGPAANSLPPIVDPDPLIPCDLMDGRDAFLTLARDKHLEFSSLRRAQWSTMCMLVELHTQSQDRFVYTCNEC

Mof = target: T4, Mof (Homo sapiens, UniProt Q9H7Z6); assay: Competition of Mof labeling by probe 3; assay type: binding; conditions: excess competitor (100 μM), probe 3 1 μM
T4 sequence (Q9H7Z6 147-449): T2 sequence (Q9H7Z6 147-449)

pCAF [3] = target: T1, pCAF; conditions: excess competitor (100 μM), probe 2 1 μM
human pCAF = conditions: cited from earlier work
pCAF [4] = conditions: read-out: literature IC50; cited from earlier work
Gcn5 [5] = target: T5, Gcn5 (Homo sapiens, UniProt Q92830); assay: Competitive substrate profiling: Gcn5 labeling by probe 2 vs acyl-CoAs; assay type: binding; conditions: 2 (10 μM), acyl-CoAs (1000 μM)
Gcn5 [6] = target: T5, Gcn5; assay: LC–MS/MS verification of Gcn5 acyltransferase activity; assay type: biochemical; conditions: LC–MS/MS analysis, Supplementary Figure S10
pCAF [7] = target: T1, pCAF; assay: Detection of recombinant pCAF spiked into HeLa cell proteome; assay type: binding
[8] = probe 1–10 μM, 365 nm, click with fluorescent azide

Compound: H4K16-CoA-BPyne [compound 3]
Labeling of Mof in KAT cocktail (Mof (MYST1)): most strongly labeled
Fluorescent labeling of purified recombinant Mof (Mof (MYST1); [8]): reacted effectively
Labeling of pCAF in KAT cocktail (pCAF [2]): fainter labeling
Labeling of p300 in KAT cocktail (p300): fainter labeling

Compound: CC(C)(COP(=O)(O)OP(=O)(O)OC[C@H]1O[C@@H](n2cnc3c(N)ncnc32)[C@H](O)[C@@H]1OP(=O)(O)O)[C@@H](O)C(=O)NCCC(=O)NCCSC(=O)CC(=O)O [malonyl-CoA]
Use as substrate by pCAF (human pCAF): not utilized as a substrate

Compound: CC(=O)SCCNC(=O)CCNC(=O)[C@H](O)C(C)(C)COP(=O)(O)OP(=O)(O)OC[C@H]1O[C@@H](n2cnc3c(N)ncnc32)[C@H](O)[C@@H]1OP(=O)(O)O [acetyl-CoA]
Competition with 2 for active site occupancy of Gcn5 (Gcn5 [5]): efficiently competed labeling

Compound: CCCC(=O)SCCNC(=O)CCNC(=O)[C@H](O)C(C)(C)COP(=O)(O)OP(=O)(O)OC[C@H]1O[C@@H](n2cnc3c(N)ncnc32)[C@H](O)[C@@H]1OP(=O)(O)O [butyryl-CoA]
Use as substrate by Gcn5 (Gcn5 [6]): utilized
Competition with 2 for active site occupancy of Gcn5 (Gcn5 [5]): partial antagonist

Compound: H3K14-CoA-BPyne [compound 2]
Labeling of Mof in KAT cocktail (Mof (MYST1)): weaker, but detectable, labeling
Relative labeling of pCAF at low probe concentration (pCAF [2]; 0.1 μM probe, clickable 2 compared with fluorescent probe 7): visibly greater labeling
Fluorescent detection of pCAF at high probe concentration (pCAF [2]): facilitate fluorescent detection
Fraction of pCAF covalently labeled (cross-linking yield) (pCAF [2]; 60 min irradiation at 365 nm on ice, gel densitometry): 33–40%
Labeling of pCAF in KAT cocktail (pCAF [2]): clear preference for specific labeling
Fluorescent labeling of purified recombinant pCAF (pCAF [2]; [8]): reacted effectively
Lower limit of pCAF detection (pCAF [7]; 2 (1 μM), HeLa proteome (7 μg), gel-based): 2.5 pmols
Detection of pCAF spiked into HeLa cell proteomes (pCAF [7]; pCAF 7 pmols): capable of detecting
Labeling of pCAF in HEK-293 overexpression extracts (pCAF [1]; fluorescence gel): Weak but detectable labeling

The remaining lines, values ahead:

Competition of pCAF labeling by 2 in HEK-293 overexpression extracts (pCAF [1]; competitor): sensitive to competition
Compound: H3K14-CoA [compound 5, reference compound]

Competition of Mof-3 interaction (Mof): competed
Competition of interaction of pCAF with 2 (pCAF [3]): no similar effect
Compound: CC(=O)N[C@@H](CCCCNC(=O)CSCCNC(=O)CCNC(=O)[C@H](O)C(C)(C)COP(=O)(O)OP(=O)(O)OC[C@H]1O[C@@H](n2cnc3c(N)ncnc32)[C@H](O)[C@@H]1OP(=O)(O)O)C(N)=O [compound 4, Lys-CoA]

Fluorescent detection of pCAF at high probe concentration (pCAF [2]): facilitate fluorescent detection
Compound: TAMRA-H3K14-CoA [compound 7]

Competition with 2 for active site occupancy of Gcn5 (Gcn5 [5]): did not impede labeling
Compound: CC=CC(=O)SCCNC(=O)CCNC(=O)[C@H](O)C(C)(C)COP(=O)(O)OP(=O)(O)OC[C@H]1O[C@@H](n2cnc3c(N)ncnc32)[C@H](O)[C@@H]1OP(=O)(O)O [crotonyl-CoA]

Use as substrate by Gcn5 (Gcn5 [6]): utilized
Competition with 2 for active site occupancy of Gcn5 (Gcn5 [5]): antagonized labeling
Compound: CCC(=O)SCCNC(=O)CCNC(=O)[C@H](O)C(C)(C)COP(=O)(O)OP(=O)(O)OC[C@H]1O[C@@H](n2cnc3c(N)ncnc32)[C@H](O)[C@@H]1OP(=O)(O)O [propionyl-CoA]
